{"source": "patent US11834432B2", "about": "“Substituted amino six-membered nitric heterocyclic ring compound and preparation and use thereof” (SHANGHAI INSTITUTE OF MATERIA MEDICA, CHINESE ACADEMY OF …, priority 2016, dated 2023)", "key": {"[1]": {"biological_target": "FGFR1 kinase domain recombinant protein (Homo sapiens (Human), UniProt P11362)", "sequence (P11362 478-767)": "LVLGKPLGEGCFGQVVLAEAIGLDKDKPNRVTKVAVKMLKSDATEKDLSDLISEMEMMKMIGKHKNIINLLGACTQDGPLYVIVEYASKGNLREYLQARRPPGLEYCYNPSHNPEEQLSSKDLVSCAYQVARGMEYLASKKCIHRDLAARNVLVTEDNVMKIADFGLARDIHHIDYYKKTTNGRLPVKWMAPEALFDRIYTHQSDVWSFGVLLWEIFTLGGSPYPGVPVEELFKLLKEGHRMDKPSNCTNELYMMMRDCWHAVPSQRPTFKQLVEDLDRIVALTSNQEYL", "assay": "Inhibition of receptor tyrosine kinase FGFR1 activity (ELISA)", "assay_type": "biochemical", "protocol": "1. Preliminary Evaluation Inhibition on Receptor Tyrosine Kinase FGFR1 Activity of Compound\n1. […] The liquid from the well was discarded. The plate was washed for three times with T-PBS (0.1% Tween-20 in potassium-free PBS, 200 μL/well), 5 minutes for each time. The elisa plate was dried in 37° C. dryer for 1-2 hours.\n2. 49 μL of ATP solution diluted in reaction buffer (50 mM HEPES pH 7.4, 50 mM MgCl2, 0.5 mM MnCl2, 0.2 mM Na3VO4, 1 mM DTT) was added into each well, and 1 μL of the test compound was added to each well, and then 50 μL of FGFR1 kinase domain recombinant protein diluted in reaction buffer was added to initiate the reaction, and two control wells without ATP were required for each experiment. The reaction was performed on a Shaker (100 rpm) at 37° C. for 1 hour. The liquid from the well was discarded, and the plate was washed with T-PBS for three times.\n3. The antibody PY99 dilution (antibody diluted 1:500 in T-PBS with BSA 5 mg/mL) was added at 100 μL/well, and shaken for 0.5 hours on a 37° C. shaker. The liquid from the well was discarded, and the plate was washed with T-PBS for three times.\n4. The horseradish peroxidase-labeled goat anti-mouse second antibody dilution (antibody diluted 1:2000 in T-PBS with BSA 5 mg/mL) was added at 100 μL/well, and shaken for 0.5 hours on a 37° C. shaker. The liquid from the well was discarded, and the plate was washed with T-PBS for three times.\n5. 2 mg/mL OPD coloration solution (diluted with 0.1 M citric acid-sodium citrate buffer containing 0.03% H2O2 (pH=5.4)) was added at 100 μL/well, and reacted for 1-10 minutes at 25° C. in darkness.\n6. The reaction was quenched with 50 μL/well of 2M H2SO4, and the plate was read using a tunable microplate microplate reader VERSAmax at 490 nm.\nThe IC50 values were obtained by four-parameter regression analysis using the software supplied with the microplate reader."}, "[2]": {"system": "human lung cancer NCI-H1581 subcutaneously transplanted tumor", "assay": "Growth of subcutaneously transplanted tumor in human lung cancer NCI-H1581 nude mice", "description": "The cell strain was inoculated in the right axilla of the nude mice, and the amount of cells inoculated was 5×10^6/mouse to form transplanted tumor, which was directly inoculated and used.\nThe tumor tissue in the prosperous growth period was cut into 1.5 mm^3, and inoculated subcutaneously in the right axilla of the nude mice under aseptic conditions. The diameter of the transplanted tumor in the nude mice was measured with a vernier caliper, and the animals were randomly grouped when the average volume of tumors was about 150-160 mm^3. […] The solvent control group was given an equal amount of water for injection. The diameter of the transplanted tumor was measured twice a week during the entire experiment, and the body weight of the mice was also weighed. The calculation formula of tumor volume (TV) is: TV=1/2×a×b^2, where a and b respectively represent the length and width of the tumor. The relative tumor volume (RTV) was calculated based on the measured results and the formula was: RTV=Vt/V0, where V0 is the tumor volume measured at grouping and dosing (d0), and Vt is the tumor volume at each measurement."}, "[3]": {"system": "human gastric cancer SNU-16 subcutaneously transplanted tumor", "assay": "Growth of subcutaneously transplanted tumor in human gastric cancer SNU-16 nude mice", "assay_type": "in vivo", "protocol": "The human gastric cancer SNU-16 cell strain was preserved in our laboratory.\nS10 groups (30 mg/kg and 10 mg/kg) were orally administered once a day for 21 days; AZD4547 group (10 mg/kg) was administered orally once a day for 21 days; solvent control group was given the same amount of water for injection."}}, "note": "“And” between values parts separate entries of the source, which are not always exact repeats. Equal values may be shown once."}
{"smiles": "CNC(=O)c1cccc2cc(Oc3ccnc(NC(=O)c4ccc(N5C[C@@H](C)N[C@@H](C)C5)cc4)c3)ccc12", "note": "[Compound S10]", "values": [{"measurement": "IC50", "setting": "[1]", "value": "< 10", "unit": "nM"}, {"measurement": "inhibition at 0.1 µM", "setting": "[1]; 1 h, read-out: Inhibition ratio (%) @ 0.1 μM", "value": 94, "unit": "%"}, {"measurement": "Body weight (g) d0", "setting": "[2]; 2.5 mg/kg po qd/14, d0", "value": 19.8, "unit": "g"}, {"measurement": "TV (mm^3, mean SD) d0", "setting": "[2]; 2.5 mg/kg po qd/14, d0", "value": "157 ± 43", "unit": "mm^3"}, {"measurement": "Body weight (g) d14", "setting": "[2]; 2.5 mg/kg po qd/14, d14", "value": 21.8, "unit": "g"}, {"measurement": "RTV (mean SD)", "setting": "[2]; 2.5 mg/kg po qd/14, d14", "value": "8.36 ± 2.17"}, {"measurement": "T/C (%)", "setting": "[2]; 2.5 mg/kg po qd/14, d14", "value": "40.19% and 40%"}, {"measurement": "TV (mm^3, mean SD) d14", "setting": "[2]; 2.5 mg/kg po qd/14, d14", "value": "1287 ± 412", "unit": "mm^3"}, {"measurement": "Body weight (g) d0", "setting": "[2]; 5 mg/kg po qd/14, d0", "value": 19.0, "unit": "g"}, {"measurement": "TV (mm^3, mean SD) d0", "setting": "[2]; 5 mg/kg po qd/14, d0", "value": "154 ± 53", "unit": "mm^3"}, {"measurement": "Body weight (g) d14", "setting": "[2]; 5 mg/kg po qd/14, d14", "value": 21.5, "unit": "g"}, {"measurement": "RTV (mean SD)", "setting": "[2]; 5 mg/kg po qd/14, d14", "value": "3.57 ± 0.91"}, {"measurement": "T/C (%)", "setting": "[2]; 5 mg/kg po qd/14, d14", "value": "17.18% and 17%"}, {"measurement": "TV (mm^3, mean SD) d14", "setting": "[2]; 5 mg/kg po qd/14, d14", "value": "524 ± 122", "unit": "mm^3"}, {"measurement": "Body weight (g) d0", "setting": "[2]; 10 mg/kg po qd/14, d0", "value": 19.9, "unit": "g"}, {"measurement": "TV (mm^3, mean SD) d0", "setting": "[2]; 10 mg/kg po qd/14, d0", "value": "155 ± 45", "unit": "mm^3"}, {"measurement": "Body weight (g) d14", "setting": "[2]; 10 mg/kg po qd/14, d14", "value": 23.0, "unit": "g"}, {"measurement": "RTV (mean SD)", "setting": "[2]; 10 mg/kg po qd/14, d14", "value": "2.09 ± 0.77"}, {"measurement": "T/C (%)", "setting": "[2]; 10 mg/kg po qd/14, d14", "value": "10.03% and 10%"}, {"measurement": "TV (mm^3, mean SD) d14", "setting": "[2]; 10 mg/kg po qd/14, d14", "value": "338 ± 223", "unit": "mm^3"}, {"measurement": "Condition and mortality of animals during the experiment", "setting": "[2]; 10, 5 and 2.5 mg/kg po once a day for two weeks", "value": "the animals in each group were in good condition and there was no mice died"}, {"measurement": "Body weight (g) d0", "setting": "[3]; 10 mg/kg po qd/21, d0", "value": 19.9, "unit": "g"}, {"measurement": "TV (mm^3, mean ± SD) d0", "setting": "[3]; 10 mg/kg po qd/21, d0", "value": "106 ± 33", "unit": "mm^3"}, {"measurement": "Body weight (g) d21", "setting": "[3]; 10 mg/kg po qd/21, d21", "value": 21.4, "unit": "g"}, {"measurement": "RTV (mean ± SD)", "setting": "[3]; 10 mg/kg po qd/21, d21", "value": "3.48 ± 2.29"}, {"measurement": "T/C (%)", "setting": "[3]; 10 mg/kg po qd/21, d21", "value": "25.35% and 25%"}, {"measurement": "TV (mm^3, mean ± SD) d21", "setting": "[3]; 10 mg/kg po qd/21, d21", "value": "322 ± 107", "unit": "mm^3"}, {"measurement": "Body weight change, condition and mortality of mice during the experiment", "setting": "[3]; 30 mg/kg po once a day for 21 days", "value": "average weight of mice in the S10 group (30 mg/kg) was decreased, but the mice were still in good condition and no mice died"}, {"measurement": "Body weight (g) d0", "setting": "[3]; 30 mg/kg po qd/21, d0", "value": 21.2, "unit": "g"}, {"measurement": "TV (mm^3, mean ± SD) d0", "setting": "[3]; 30 mg/kg po qd/21, d0", "value": "106 ± 22", "unit": "mm^3"}, {"measurement": "Body weight (g) d21", "setting": "[3]; 30 mg/kg po qd/21, d21", "value": 17.0, "unit": "g"}, {"measurement": "RTV (mean ± SD)", "setting": "[3]; 30 mg/kg po qd/21, d21", "value": "1.19 ± 0.38"}, {"measurement": "T/C (%)", "setting": "[3]; 30 mg/kg po qd/21, d21", "value": "8.67% and 9%"}, {"measurement": "TV (mm^3, mean ± SD) d21", "setting": "[3]; 30 mg/kg po qd/21, d21", "value": "125 ± 47", "unit": "mm^3"}]}
